What was measured:
[1] = test system: declawed cats with chronic distal thoracic limb pain; assay: Adverse events in open-label multicenter trial of perineural RTX in declawed cats; format: in vivo, cat; details: for Animals with self-limiting reactions related to the treatment: during recovery from anesthesia
Method: Cats suffering from severe bilateral chronic pain (more than 90 days) as a result of severe complications after onychectomy were enrolled in this study (an exploratory, open-label, multicenter clinical trial). Thirteen (13) cases were treated for initial pain and reduced quality of life (QoL). Then, bilateral perineural distal limb injections (ring block technique) were administered under general anesthesia (a combination of diphenhydramine, buprenorphine, dexmedetomidine, ketamine, and isoflurane). Following a published technique (Enomoto et al., 2016) for the nerve block of the manus of the cat, the total dose of RTX was equally distributed adjacent to the 1) superficial branch of the radial nerve, 2) dorsal branch of the ulnar nerve, 3) median nerve and superficial branch of the palmar branch of the ulnar nerve, and 4) deep branch of palmar branch of the ulnar nerve. A total of 2.5 ug (1.25 ug/1 mL per forelimb in Group 1, n=7) and 5 ug (2.5 ug/1 mL per forelimb in Group 2, n=6) of RTX was injected as a one-time treatment. Group 2 included the cat for which detailed results are provided in Example B above. Monitoring of QoL and pain for the following 28 days was accomplished using the Client-Specific Outcome Measures feline (CSOMf), the Feline Musculoskeletal Pain Index (FMPI), two post-injection physical examinations, and videography on days 3, 7, 14, and 28 post injections.

[2] = test system: declawed cat with maladaptive pain; assay: Physical exam and behavioral findings in a declawed cat after perineural RTX; format: in vivo; details: one cat
Method: Tolerance, safety, and analgesic effects of RTX administration were evaluated in a single declawed cat with maladaptive pain. […] The cat also presented a self-limiting decreased appetite for 12 hours post injection.
A summary of the pre- and post-RTX injection physical exam results relevant to pain related to the declawed digits are presented in Table 4.
Additionally, the cat had shown elimination behavior issues, aggressivity when manipulated, and diminished attention seeking before treatment. Each of these behavioral issues related to the chronic maladaptive pain state reversed following the perineural administration of RTX, even though the cat was believed to have been in pain for years prior to this treatment.

[3] = test system: Crl:CD(SD) Sprague Dawley rats; assay: Single dose nerve block injection safety study in rats with 14-day recovery; format: in vivo, rat; details: for Food consumption: Days 2 to 7
Description: This study was directed to determining the safety of administering RTX, when given as a nerve block injection as a single dose to rats.
119 male and 119 female Crl:CD(SD) Sprague Dawley rats were obtained from Charles River Laboratories, Raleigh, NC. The animals were 10 weeks old and weighed between 212 and 482 g at the initiation of dosing.
The nerve block injection doses were given into the right thigh. The animals were temporarily restrained for dose administration. Animals were sedated via isoflurane inhalation for dose administration. The day of dosing for each animal was designated as Day 1. A necropsy was conducted for a recovery study animal that died on study, and specified tissues were retained. The animal was refrigerated prior to necropsy to minimize autolysis.
Toxicokinetic animals surviving until scheduled euthanasia were euthanized by carbon dioxide inhalation.
Main study and recovery animals were subjected to a complete necropsy examination. A board-certified veterinary pathologist was available for scheduled necropsies.
All statistical tests were conducted at the 5% significance level. All pairwise comparisons were conducted using two-sided tests.
The groups were compared using an overall one-way ANOVA F-test if Levene's test was not significant or the Kruskal-Wallis test if it was significant. […] Datasets with two groups were compared using a Dunnett's test (equivalent to t-test in Nevis 2012 tables) or Dunn's test (equivalent to Wilcoxon Rank-Sum test in Nevis 2012 tables).

[4] = 10 μg, both sexes, terminal euthanasia

C=C(C)[C@]12C[C@@H](C)[C@@]34O[C@](Cc5ccccc5)(O[C@@H]1[C@@H]3C=C(COC(=O)Cc1ccc(O)c(OC)c1)C[C@]1(O)C(=O)C(C)=C[C@@H]41)O2 [RTX, resiniferatoxin]
Tolerability of perineural RTX at the described doses ([1]; 2.5 ug and 5 ug total per cat): well tolerated | Adverse event: hypersalivation ([1]; Group 1 (2.5 ug total)): 71.4% | Adverse event: panting ([1]; Group 1 (2.5 ug total)): 57.1% | Adverse event: vocalization ([1]; Group 1 (2.5 ug total)): 57.1% | AEs presented and resolved the same day of administration ([1]; Group 1 (2.5 ug total), 26/30): 86.6% | Animals with self-limiting reactions related to the treatment ([1]; Group 1 (2.5 ug total, 1.25 ug per forelimb, n=7)): 71.4% | Adverse event: hypersalivation ([1]; Group 2 (5 ug total)): 50% | Adverse event: panting ([1]; Group 2 (5 ug total)): 83.3% | Adverse event: vocalization ([1]; Group 2 (5 ug total)): 83.3% | AEs presented and resolved the same day of administration ([1]; Group 2 (5 ug total), 21/22): 95.4% | Animals with self-limiting reactions related to the treatment ([1]; Group 2 (5 ug total, 2.5 ug per forelimb, n=6)): 100% | AEs presented and resolved the same day of administration ([1]; both groups): more than 85% | Time to resolution of most common adverse events after treatment ([1]; both groups): ≤ 4 h | Behavioral issues (elimination behavior issues, aggressivity when manipulated, diminished attention seeking) ([2]; following perineural administration): reversed | Overall conclusion from CSOM and FMPI scores ([2]; 2.5 μg/forelimb perineural): safe and effective | Persistence of effects ([2]; 2.5 μg/forelimb perineural): at least 14 days | Food consumption ([3]; 2.5 μg, females only): statistically significant decrease | Unscheduled death ([3]; 2.5 μg, one recovery study female, unrelated to test article, attributed to aspiration-related foreign material/inflammation in the lung): found dead on Day 2 | Microscopic change in the skeletal muscle ([3]; 10 μg): myofiber degeneration/necrosis | Spleen microscopic correlate ([3]; 10 μg, both sexes): minimal decreased lymphoid cellularity of the white pulp | Thymus microscopic correlate ([3]; 10 μg, both sexes): minimal to mild decreased lymphoid cellularity | Spleen weights [3, 4]: Statistically significant lower absolute and relative spleen weights | Thymic weights [3, 4]: Lower absolute and relative thymic weights | Neutrophils ([3]; 10 μg, females only): statistically significant increase that remained increased after the recovery period | Mean body weight gain ([3]; 10 μg, females, Days 1 to 14): statistically significant decrease | Food consumption ([3]; 10 μg, males only): statistically significant decrease | Mean body weight gain ([3]; 10 μg, males, Days 1 to 2): statistically significant decrease | Microscopic change in the mammary gland (non-adverse) ([3]; >2.5 μg): single cell necrosis | Test article-related organ weight changes at end of recovery ([3]; end of the recovery period (Day 15)): not observed | Reversibility of microscopic changes ([3]; following a 14-day recovery period): fully recovered | Clinical chemistry parameters ([3]; rats): no adverse RTX (resiniferatoxin)-related changes | Tolerability as nerve block injection ([3]; rats, 0.625, 2.5, and 10 μg single dose): well tolerated | Differences in hematology, coagulation, clinical chemistry and urinalysis parameters ([3]; rats, all dose groups): not considered adverse or were not considered vehicle or test article related | no-observed-adverse-effect level (NOAEL) ([3]; rats, single nerve block injection): 10 µg | Mortality, organ weight, gross observations ([3]; single dose 0, 0.625, 2.5, or 10 μg): no test article-related mortality, differences in organ weight, or gross observations | Gross findings ([3]; terminal euthanasia or recovery period animals): No test article-related gross findings

Source: patent publication US12144886B2, “Perineural administration of resiniferatoxin for treatment of maladaptive pain” (Sorrento Therapeutics, Inc., priority 2018, dated 2024)
